Test results as given in patent US6562871B1, “Dry granulation of pharmaceutical formulation comprising mexiletine” (Boehringer Ingelheim Pharmaceuticals, Inc., priority 2000, dated 2003).
Like-named read-outs stand apart in the source and are kept apart here.

Experiments:
[1] = Method: Particle size and distribution was determined by suspending a sample of powder in mineral oil on a hemacytometer and counting particles in the size ranges: 1-5, 5-10, 10-25, 25-50, 50-100, 100-200, >200 μm using a polarizing light microscope. At least 200 particles were counted.
Maximum and minimum particle sizes were determined with a large sampling using a low power, stereo microscope. The sample was suspended in a well slide filled with mineral oil. Measurements of the largest and smallest particles were made with a calibrated reticule.

[2] = Flow studies (funnel flow rate, angle of repose); format: physicochemical
Method: The flow studies were performed using a ring stand and funnel set-up, such that the funnel was perpendicular to the table flat surface and the tip of the funnel was 6 inches from the table flat surface. The funnel was plastic with the following dimensions: upper diameter, 150 mm, lower diameter 24 mm, and overall length 135 mm. To the upper, wider diameter of the funnel a vibrator was placed touching the outer perimeter. The vibrator was set on its dial such that the indicator was in the 3 o'clock position. Fifty grams of material was placed into the funnel while holding a piece of cardboard under it. The vibrator was started, and the cardboard was removed while simultaneously starting a timer. The time for the fifty grams to pass through a funnel was recorded. The angle of repose, the maximum angle that can be obtained between the free standing surface of a powder heap and the horizontal plane, was calculated according to: […]
Where h is the height of the powder heap and D is the diameter of the base of the powder heap. Tests were performed in duplicate.

[3] = Compressional force profiles; format: physicochemical; conditions: slugs on hydraulic press, FIG. 1 and FIG. 2
Source text: Compressional force profiles were generated on a calibrated Carver press using 12 mm standard cup punches and matching die. The punches and die were dusted with magnesium stearate to facilitate the release of the slug from the die. Five hundred milligram aliquots of drug substance were weighed and individually loaded into the die for compression. Slugs were compressed at 1000, 2000, 3000, 4000, 5000, 6000, 7000 and 8000 pounds gauge force (unless otherwise noted). Gauge force readings were corrected based on the calibration for that gauge and press. The compressed slugs for each representative force were weighed on a four place balance and measured for thickness. Pressure, volume and density were calculated using slug (tablet) geometry and area.

[4] = Pour and tap density; format: physicochemical; conditions: average of two measurements
Method: Pour and tap density were tested using a Van Kel dual tapper and a 100 mL fluted graduate. The tare weight of the graduate was determined. It was then filled by pouring the powder into the graduate to approximately 70 mL. The net weight was next determined and a pour density calculated by dividing the net weight by the observed volume. Tap density was determined by allowing the graduate to tap 1000 times and reading the new volume. Tap density was calculated by dividing the net weight by the new “tap” volume. Both measurements were expressed in grams/mL. Results were reported as the average of two measurements.

Particle Size Distribution, % by number ([1]; size range 1-5 μm): 32.0%
Particle Size Distribution, % by number ([1]; size range 5-10 μm): 23.3%
Particle Size Distribution, % by number ([1]; size range 10-25 μm): 37.9%
Particle Size Distribution, % by number ([1]; size range 25-50 μm): 6.6%
Particle Size Distribution, % by number ([1]; size range 50-100 μm): 0.2%
Particle Size Distribution, % by number ([1]; size range 100-200 μm): 0.0%
Particle Size Distribution, % by number ([1]; size range >200 μm): 0.0%
Size of larger particles ([1]; well slide technique, larger sample sizes, very few): 150 μm
Angle of Repose [2]: 62 °
Flow Rate ([2]; 50 g through funnel, vibrator assisted): 2.1 g/s
Compressibility (density vs pressure) ([3]; listed as drug substance): very compressible
Compressibility (density vs pressure) ([3]; listed as mexiletine drug substance): very good compressional characteristics
Tap Density ([4]; 1000 taps): 0.35 g/mL
Bulk Density ([4]; pour density): 0.22 g/mL
SMILES: Cc1cccc(C)c1OCC(C)N (centres unmarked) [Mexiletine Drug Substance, 1-(2,6-dimethyl-phenoxy)-2-propanamine]
